Test results: ChEMBL document CHEMBL3885861, “Open TG-GATES”

Organism: Rattus norvegicus
Experiment: Open TG-GATES - Regimen: Single
Format: toxicity, organism-based, Sprague-Dawley
Set-up: regimen Single, gender Male, age 6 weeks
Settings: in vivo, po, route gavage; for Fbg / Hb / Ht / Lym / MCH / MCHC / MCV / Mono / Neu / PT / Plat / RBC / Ret / WBC / APTT / Bas / Eos: tissue Blood; for KIDNEY_L / KIDNEY_R / KIDNEY_TOTAL: tissue Kidney; for LIVER: tissue Liver; for A/G / ALP / ALT / AST / BUN / CRE / Ca / Cl / DBIL / GLC / IP / K / LDH / Na / PL / RALB / TBIL / TC / TG / TP / gamma-GTP: tissue Plasma
[1] = 300 mg/kg, 6 h, dose level Middle
[2] = 300 mg/kg, 9 h, dose level Middle
[3] = 300 mg/kg, 24 h, dose level Middle
[4] = 600 mg/kg, 3 h, dose level High
[5] = 600 mg/kg, 6 h, dose level High
[6] = 600 mg/kg, 9 h, dose level High
[7] = 600 mg/kg, 24 h, dose level High

Compound: O=C1CN(/N=C/c2ccc([N+](=O)[O-])o2)C(=O)N1 [NITROFURANTOIN]
- Fbg [1]: 235.8 mg/dL
- Hb [1]: 13.2 g/dL
- Ht [1]: 40%
- Lym [1]: 70.6%
- MCH [1]: 21.1 pg
- MCHC [1]: 33%
- MCV [1]: 63.9 fL
- Mono [1]: 8%
- Neu [1]: 20%
- PT [1]: 11.7 s
- Plat [1]: 127.7 x10_4/uL
- RBC [1]: 625.2 x10_4/ul
- Ret [1]: 7.7%
- WBC [1]: 80.2 x10_2/uL
- KIDNEY_L [1]: 0.9 g
- KIDNEY_R [1]: 0.9 g
- KIDNEY_TOTAL [1]: 1.9 g
- LIVER [1]: 8.7 g
- A/G [1]: 2.4
- ALP [1]: 1363.8 IU/L
- ALT [1]: 30.6 IU/L
- AST [1]: 63.4 IU/L
- BUN [1]: 10 mg/dL
- CRE [1]: 0.5 mg/dL
- Ca [1]: 11.5 mg/dL
- Cl [1]: 103.8 meq/L
- DBIL [1]: 0.004 mg/dL
- GLC [1]: 192.4 mg/dL
- IP [1]: 9.1 mg/dL
- K [1]: 4.2 meq/L
- LDH [1]: 69 IU/L
- Na [1]: 137.2 meq/L
- PL [1]: 158.2 mg/dL
- RALB [1]: 4.1 g/dL
- TBIL [1]: 0.036 mg/dL
- TC [1]: 113 mg/dL
- TG [1]: 36.2 mg/dL
- TP [1]: 5.8 g/dL
- gamma-GTP [1]: 0.2 IU/L
- TERMINAL_BW [2]: 204.4 g
- APTT [2]: 17 s
- Bas [2]: 0%
- Eos [2]: 1.2%
- Fbg [2]: 234.8 mg/dL
- Hb [2]: 13.3 g/dL
- Ht [2]: 40.4%
- Lym [2]: 70.6%
- MCH [2]: 21.5 pg
- MCHC [2]: 33%
- MCV [2]: 64.9 fL
- Mono [2]: 7.8%
- Neu [2]: 20.6%
- PT [2]: 11.7 s
- Plat [2]: 116.3 x10_4/uL
- RBC [2]: 622.6 x10_4/ul
- Ret [2]: 6.4%
- WBC [2]: 62.7 x10_2/uL
- KIDNEY_L [2]: 0.9 g
- KIDNEY_R [2]: 1 g
- KIDNEY_TOTAL [2]: 1.9 g
- LIVER [2]: 8.9 g
- A/G [2]: 2.2
- ALP [2]: 1126.4 IU/L
- ALT [2]: 29.6 IU/L
- AST [2]: 59.4 IU/L
- BUN [2]: 12.4 mg/dL
- CRE [2]: 0.4 mg/dL
- Ca [2]: 11.4 mg/dL
- Cl [2]: 106 meq/L
- DBIL [2]: 0.008 mg/dL
- GLC [2]: 210 mg/dL
- IP [2]: 8.5 mg/dL
- K [2]: 4.4 meq/L
- LDH [2]: 61.8 IU/L
- Na [2]: 138.6 meq/L
- PL [2]: 143.8 mg/dL
- RALB [2]: 4 g/dL
- TBIL [2]: 0.038 mg/dL
- TC [2]: 88.6 mg/dL
- TG [2]: 62.8 mg/dL
- TP [2]: 5.9 g/dL
- gamma-GTP [2]: 1 IU/L
- TERMINAL_BW [3]: 197.5 g
- APTT [3]: 16 s
- Bas [3]: 0%
- Eos [3]: 1.6%
- Fbg [3]: 229.2 mg/dL
- Hb [3]: 13.8 g/dL
- Ht [3]: 42.2%
- Lym [3]: 82%
- MCH [3]: 21.3 pg
- MCHC [3]: 32.6%
- MCV [3]: 65.3 fL
- Mono [3]: 4.2%
- Neu [3]: 12.2%
- PT [3]: 11.6 s
- Plat [3]: 128 x10_4/uL
- RBC [3]: 647 x10_4/ul
- Ret [3]: 6.2%
- WBC [3]: 69.5 x10_2/uL
- KIDNEY_L [3]: 1 g
- KIDNEY_R [3]: 1 g
- KIDNEY_TOTAL [3]: 2.1 g
- LIVER [3]: 8.1 g
- A/G [3]: 2.2
- ALP [3]: 1379.2 IU/L
- ALT [3]: 32.6 IU/L
- AST [3]: 62.6 IU/L
- BUN [3]: 15.4 mg/dL
- CRE [3]: 0.4 mg/dL
- Ca [3]: 11.1 mg/dL
- Cl [3]: 107.8 meq/L
- DBIL [3]: 0.01 mg/dL
- GLC [3]: 194.2 mg/dL
- IP [3]: 9.1 mg/dL
- K [3]: 4.6 meq/L
- LDH [3]: 73.4 IU/L
- Na [3]: 140.8 meq/L
- PL [3]: 150.8 mg/dL
- RALB [3]: 3.8 g/dL
- TBIL [3]: 0.028 mg/dL
- TC [3]: 85.8 mg/dL
- TG [3]: 118.6 mg/dL
- TP [3]: 5.6 g/dL
- gamma-GTP [3]: 0 IU/L
- TERMINAL_BW [4]: 206.4 g
- APTT [4]: 16.4 s
- Bas [4]: 0%
- Eos [4]: 1%
- Fbg [4]: 233.2 mg/dL
- Hb [4]: 13.2 g/dL
- Ht [4]: 40.3%
- Lym [4]: 71%
- MCH [4]: 21.1 pg
- MCHC [4]: 32.8%
- MCV [4]: 64.4 fL
- Mono [4]: 6.4%
- Neu [4]: 22.4%
- PT [4]: 12.1 s
- Plat [4]: 121.3 x10_4/uL
- RBC [4]: 625.6 x10_4/ul
- Ret [4]: 7.8%
- WBC [4]: 72.9 x10_2/uL
- KIDNEY_L [4]: 0.9 g
- KIDNEY_R [4]: 1 g
- KIDNEY_TOTAL [4]: 1.9 g
- LIVER [4]: 8.8 g
- A/G [4]: 2.2
- ALP [4]: 1226.6 IU/L
- ALT [4]: 36 IU/L
- AST [4]: 64.4 IU/L
- BUN [4]: 12 mg/dL
- CRE [4]: 0.5 mg/dL
- Ca [4]: 11.6 mg/dL
- Cl [4]: 104 meq/L
- DBIL [4]: 0 mg/dL
- GLC [4]: 198.4 mg/dL
- IP [4]: 10.1 mg/dL
- K [4]: 4 meq/L
- LDH [4]: 91.2 IU/L
- Na [4]: 139.6 meq/L
- PL [4]: 146 mg/dL
- RALB [4]: 4.1 g/dL
- TBIL [4]: 0.034 mg/dL
- TC [4]: 90.8 mg/dL
- TG [4]: 54.8 mg/dL
- TP [4]: 5.9 g/dL
- gamma-GTP [4]: 1 IU/L
- TERMINAL_BW [5]: 204.9 g
- APTT [5]: 16 s
- Bas [5]: 0%
- Eos [5]: 1%
- Fbg [5]: 228.8 mg/dL
- Hb [5]: 13.7 g/dL
- Ht [5]: 41.9%
- Lym [5]: 74.8%
- MCH [5]: 20.9 pg
- MCHC [5]: 32.8%
- MCV [5]: 63.9 fL
- Mono [5]: 5.8%
- Neu [5]: 18.6%
- PT [5]: 11.8 s
- Plat [5]: 115.3 x10_4/uL
- RBC [5]: 656.6 x10_4/ul
- Ret [5]: 7.9%
- WBC [5]: 63.6 x10_2/uL
- KIDNEY_L [5]: 0.9 g
- KIDNEY_R [5]: 0.9 g
- KIDNEY_TOTAL [5]: 1.9 g
- LIVER [5]: 8.7 g
- A/G [5]: 2.4
- ALP [5]: 1281.4 IU/L
- ALT [5]: 34.6 IU/L
- AST [5]: 64.4 IU/L
- BUN [5]: 12.6 mg/dL
- CRE [5]: 0.5 mg/dL
- Ca [5]: 11.5 mg/dL
- Cl [5]: 104.2 meq/L
- DBIL [5]: 0.008 mg/dL
- GLC [5]: 193 mg/dL
- IP [5]: 9 mg/dL
- K [5]: 4.3 meq/L
- LDH [5]: 74.4 IU/L
- Na [5]: 137.8 meq/L
- PL [5]: 144.2 mg/dL
- RALB [5]: 4.1 g/dL
- TBIL [5]: 0.04 mg/dL
- TC [5]: 99.6 mg/dL
- TG [5]: 33 mg/dL
- TP [5]: 5.8 g/dL
- gamma-GTP [5]: 0 IU/L
- TERMINAL_BW [6]: 205.1 g
- APTT [6]: 16.6 s
- Bas [6]: 0%
- Eos [6]: 1%
- Fbg [6]: 229 mg/dL
- Hb [6]: 13.5 g/dL
- Ht [6]: 41.1%
- Lym [6]: 71.4%
- MCH [6]: 21.2 pg
- MCHC [6]: 32.9%
- MCV [6]: 64.6 fL
- Mono [6]: 8%
- Neu [6]: 19.8%
- PT [6]: 11.7 s
- Plat [6]: 127.2 x10_4/uL
- RBC [6]: 636.6 x10_4/ul
- Ret [6]: 7.2%
- WBC [6]: 77 x10_2/uL
- KIDNEY_L [6]: 1 g
- KIDNEY_R [6]: 0.9 g
- KIDNEY_TOTAL [6]: 1.9 g
- LIVER [6]: 8.9 g
- A/G [6]: 2.3
- ALP [6]: 1100.8 IU/L
- ALT [6]: 28.6 IU/L
- AST [6]: 59.4 IU/L
- BUN [6]: 12.6 mg/dL
- CRE [6]: 0.4 mg/dL
- Ca [6]: 11.3 mg/dL
- Cl [6]: 104.2 meq/L
- DBIL [6]: 0.01 mg/dL
- GLC [6]: 194 mg/dL
- IP [6]: 9.2 mg/dL
- K [6]: 4.4 meq/L
- LDH [6]: 82.6 IU/L
- Na [6]: 137.4 meq/L
- PL [6]: 160.4 mg/dL
- RALB [6]: 4.1 g/dL
- TBIL [6]: 0.042 mg/dL
- TC [6]: 104.4 mg/dL
- TG [6]: 46 mg/dL
- TP [6]: 5.9 g/dL
- gamma-GTP [6]: 1 IU/L
- TERMINAL_BW [7]: 201.7 g
- APTT [7]: 16.3 s
- Bas [7]: 0%
- Eos [7]: 1.6%
- Fbg [7]: 238 mg/dL
- Hb [7]: 13.7 g/dL
- Ht [7]: 41.6%
- Lym [7]: 78.8%
- MCH [7]: 21.2 pg
- MCHC [7]: 33%
- MCV [7]: 64.4 fL
- Mono [7]: 8.2%
- Neu [7]: 11.8%
- PT [7]: 11.8 s
- Plat [7]: 131.1 x10_4/uL
- RBC [7]: 647 x10_4/ul
- Ret [7]: 6.5%
- WBC [7]: 54.6 x10_2/uL
- KIDNEY_L [7]: 1 g
- KIDNEY_R [7]: 1 g
- KIDNEY_TOTAL [7]: 1.9 g
- LIVER [7]: 8.3 g
- A/G [7]: 2.2
- ALP [7]: 1073.2 IU/L
- ALT [7]: 21.4 IU/L
- AST [7]: 54.8 IU/L
- BUN [7]: 11.4 mg/dL
- CRE [7]: 0.5 mg/dL
- Ca [7]: 11.4 mg/dL
- Cl [7]: 108 meq/L
- DBIL [7]: 0.01 mg/dL
- GLC [7]: 170.2 mg/dL
- IP [7]: 8.9 mg/dL
- K [7]: 4.1 meq/L
- LDH [7]: 91.2 IU/L
- Na [7]: 140.2 meq/L
- PL [7]: 138.4 mg/dL
- RALB [7]: 4 g/dL
- TBIL [7]: 0.04 mg/dL
- TC [7]: 95.6 mg/dL
- TG [7]: 42.6 mg/dL
- TP [7]: 5.9 g/dL
- gamma-GTP [7]: 0 IU/L
